Source: ChEMBL document CHEMBL1133610, “GRID/CPCA: a new computational tool to design selective ligands” (J Med Chem, 2000)
pIC50, pKi: −log10 of the molar value.

Experiments:
[1] = molecular target: T1, Coagulation factor X (Homo sapiens, UniProt P00742); test: Inhibitory Activity against Coagulation factor X
[2] = molecular target: Serine protease 1 (Homo sapiens, UniProt P07477); test: Inhibitory Activity against Trypsin
[3] = molecular target: Prothrombin (Homo sapiens, UniProt P00734); test: Inhibitory activity against human thrombin
[4] = molecular target: T1, Coagulation factor X; test: Inhibitory activity against human Coagulation factor Xa

T1 sequence (P00742 41-179 limits assumed): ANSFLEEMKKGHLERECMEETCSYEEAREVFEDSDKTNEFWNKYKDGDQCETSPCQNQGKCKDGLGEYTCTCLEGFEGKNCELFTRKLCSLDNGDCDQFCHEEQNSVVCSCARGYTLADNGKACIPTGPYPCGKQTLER
T1 sequence (P00742 235-488 limits assumed): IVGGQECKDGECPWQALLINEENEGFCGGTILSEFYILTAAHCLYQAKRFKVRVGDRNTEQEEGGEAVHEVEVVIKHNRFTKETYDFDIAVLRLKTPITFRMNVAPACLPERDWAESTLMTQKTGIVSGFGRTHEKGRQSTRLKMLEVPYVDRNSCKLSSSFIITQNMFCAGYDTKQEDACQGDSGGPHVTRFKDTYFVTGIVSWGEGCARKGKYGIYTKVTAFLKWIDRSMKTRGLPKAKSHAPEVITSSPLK
Serine protease 1, sequence (P07477 whole entry): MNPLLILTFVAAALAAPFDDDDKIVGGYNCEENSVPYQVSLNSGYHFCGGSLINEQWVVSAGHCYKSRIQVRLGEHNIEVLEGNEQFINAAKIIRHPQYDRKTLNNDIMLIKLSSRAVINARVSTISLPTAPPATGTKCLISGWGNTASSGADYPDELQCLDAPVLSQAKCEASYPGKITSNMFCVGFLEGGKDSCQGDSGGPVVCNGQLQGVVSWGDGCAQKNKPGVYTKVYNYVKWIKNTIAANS

Row | Compound | pKi [1] | pKi [2] | pIC50 [3] | pIC50 [4]
1 | CC1CNc2c(cccc2S(=O)(=O)N[C@@H](CCCN=C(N)N)C(=O)N2CC[C@@H](C)CC2C(=O)O)C1 (some centres undefined) | 3.68 | 5.30 |  | 
2 | N=C(N)c1cccc(-c2cccc([C@H](CCCNc3ccncc3)C(=O)O)c2)c1 |  |  | < 4.00 | 8.57
